Measurements from US7615380B2, “Methods for modulating an immune response by modulating KRC activity” (President and Fellows of Harvard College, priority 2001, dated 2009).

Experiments:
[1] = test system: IL-2; test: IL-2 ELISA in retrovirally transduced primary CD4+ T cells; format: cell-based; details: anti CD3 or anti CD3 plus CD28, 24 hours
Method: In panel A Jurkat T cells were stably transfected with vector (pEF) or KRC expression plasmids. Stable clones were stimulated for 18 hours with PMA (50 ng/mL) plus ionomycin (2 μM) and IL-2 production was measured by ELISA. In panel B Primary CD4+ T cells were activated for 36 hours and subsequently transduced with control (RV), KRC, or KRC dominant negative (ZAS2) bicistronic GFP-expressing retroviruses. GFP-positive cells were sorted and stimulated for 24 hours with anti-CD3 or anti-CD3/anti-CD28 antibodies and IL-2 production was measured by ELISA. In panel C CD4 T cells from KRC +/+ or −/− mice were stimulated with anti-CD3 (1.0 μg/mL)/CD28 (0.5 μg/mL) antibodies for 24 hours and IL-2 production was measured by ELISA. In panel D CD4 T cells from KRC +/+ or −/− mice were stimulated with anti-CD3/CD28 antibodies for 72 hours in the presence of 200 U/mL human IL-2. IFNγ production was measured by ELISA.
Activated CD4^+T cells were transduced by RV, RV-KRC or RV-ZAS2 as described previously (Szabo, S. J., et al. (2000) Cell 100:655-669).
Therefore, the effects of KRC overexpression were studied in primary CD4+T cells as well as in the Jurkat line using a retroviral delivery system to express KRC in primary CD4+T cells. […] The ability of each population to produce IL-2 following subsequent activation by anti CD3 or anti CD3 plus CD28 was measured at 24 hours post-stimulation. […]

[2] = test system: c-Jun/c-Fos AP-1; test: c-Jun/c-Fos protein stability time course with cycloheximide; format: cell-based
Method: The above experiments mapped the interaction site of KRC with c-Jun to aa 204-1055 of KRC. The interaction of full-length KRC with c-Jun was tested. […] Time course experiments were performed in which overexpressed sense KRC or an antisense KRC previously shown to block production of endogenous KRC protein were coimmunoprecipitated with overexpressed c-Jun and c-Fos. […] The same set of experiments were performed using c-Fos, a very short-lived cellular protein. […] The ability of KRC to promote the degradation of other fos family members Fra1, Fra2 and Fos B was also tested (FIG. 23(D)). […] The protein stability of V-fos was not affected by altering levels of KRC by sense or antisense overexpression.

[3] = test system: F-actin; test: F-actin immunofluorescence in Jurkat T cells; format: cell-based, human
Method: Immunofluorescence of F-actin upon KRC overexpression in Jurkat T cells was performed.

[4] = test system: TRAF2, TRAF5, TRAF6; test: Coimmunoprecipitation with TRAF family members in 293T cells; format: binding
Description: FIGS. 1(A)-1(E) show the interaction of amino acid residues 204 to 1055 of KRC (“KRC tr”) (amino acids 204-1055 of SEQ ID NO:2) with TRAF family members. […] FIG. 1(B) upper panel depicts the interaction of KRC tr with TRAFs in mammalian cells. 293 T cells were cotransfected with the indicated FLAG-TRAFs and MYC-tagged KRC tr, and immunoprecipitated with anti-MYC antibody, followed by blotting with anti-FLAG antibody. FIG. 1(B) lower panel depicts the direct western blot of overexpressed TRAFS and KRC tr with anti-FLAG or anti-MYC. FIG. 1(C) depicts the differential interaction of KRC tr with TRAF proteins. The coimmunoprecipitation experiments were performed in the presence of 300 mM NaCl instead of 137 mM NaCl. FIG. 1(D) depicts KRC tr interacting with TRAF2 lacking the Ring finger domain. 293 T cells were transfected with MYC-KRC tr and with FLAG tagged TRAF2 or with FLAG-tagged TRAF2 (87-501). FIG. 1(E) depicts the interaction of KRC tr with endogenous TRAF2 but not with endogenous TRAF5 or TRAF6. 293T were transfected with an expression vector encoding an MYC-tagged KRC tr, or empty plasmid. Lysates from 293T cells were incubated with anti-MYC antibodies. Coimmunoprecipitated endogenous TRAF was detected by western blotting with specific anti-TRAF antibodies.
Effectene™ mediated transfections into 293T cells were performed. […]

## KRC: full-length KRC zinc finger protein (SEQ ID NO:2) overexpressed from an expression vector
[1]
  IL-2 production, increase versus GFP control retrovirus: 3 to 4 fold
[2]; low dose cycloheximide
  c-Jun degradation: rapid degradation of c-Jun
[2]; presence of cycloheximide
  stability of the c-Fos protein: compromised
[3]
  actin polymerization (F-actin): reorganization of F-actin filaments
[4]
  interaction with TRAF family members: higher affinity with TRAF2 than with TRAF5 and TRAF6
